Measured values taken from patent publication US12065443B2, “Compounds and pharmaceutical compositions thereof for the treatment of diseases” (priority 2017, dated 2024).
pEC50, pIC50: −log10 of the molar value.

What was measured:
[1] = tested on: LPS-induced TNFα secretion in monocyte-derived macrophages (MdM); experiment: MdM assay: LPS-triggered TNFα (ELISA); type: cell-based, human; conditions: Homo sapiens, Macrophage, LPS-triggered TNFα inhibition
In short: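 Human CD14+ monocytes isolated from buffy-coat PBMCs by magnetic beads, differentiated to macrophages; on day 10 compound preincubated 1 h at 37 °C, then LPS 200 ng/mL added (0.2% DMSO). Supernatant taken after 20 h; TNFα quantified by sandwich ELISA against standard curve.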

[2] = tested on: LPS triggered IL-10 secretion in monocyte-derived macrophages (MdM); experiment: MdM assay: LPS-triggered IL-10 (ELISA); type: cell-based, human; conditions: maximal fold change vs LPS only, median across assays
Experimental: This assay evaluates illustrative compounds of the invention for their inhibition of LPS-induced TNFα and LPS triggered IL-10 secretion in monocyte-derived macrophages.
PBMCs are isolated from human blood samples (buffycoats). The buffy coat is aseptically transferred into a 50 mL Falcon tube, and diluted 1/2 in PBS. Falcon tubes are filled with 20 mL Lymphoprep™, on top of which 25 mL of the buffy coat is carefully added, tubes are centrifuged for 35 min at 400 g in temperature controlled centrifuge, without brake, at 25° C. PBMCs are aspirated from the white interface layer between sample and Lymphoprep™. PBMCs are washed five times in PBS.
PBMCs are centrifuged at 300×g for 10 min and resuspended at a density of 1.0E07 cells/80 μL Miltenyi buffer (PBS, pH 7.4, 1% FBS, 2 mM EDTA).
Starting from this point of the protocol all steps are performed on ice. 20 μL of CD14+ micro-beads are added per 1.0E07 cells, the tube is mixed and incubated for 15 min in the fridge at 4° C. Cell suspension volume is adjusted to total volume of 100 mL using Miltenyi buffer, mixed gently and subsequently centrifuged for 10 min at 300× g. Supernantant is discarded and cell pellet is resuspended in 12 mL of Miltenyi buffer.
Four LS columns are placed in the MACS Separator (magnet) from Miltenyi Biotec, and are prewet by rinsing with 3 mL of MACS buffer per column. Three mL of cell suspension is added onto the column (max 1*10^8 of labelled cells/column), and columns are subsequently washed 3 times with 3 mL of Miltenyi buffer.
The columns are removed from the magnets, and 5 mL of Miltenyi buffer are added to the column to flush out the CD14+ fraction by pushing the plunger into the column. The flushed fractions are collected in a fresh 50 mL Falcon and volume is adjusted to 30 mL using Miltenyi buffer, cells are centrifuged for 10 min at 300× g. The obtained cell pellet is resuspended in 10 mL RPMI w/o FBS, and cell density is determined using a hematologic analyser (Sysmex XS-500i).
On day 10, MdMs are triggered and compound is added.
A compound dilution plate is made in 100% DMSO by 3-fold dilution of 10 mM stock solution. An intermediate dilution plate (10× final concentration) is made by diluting the compound dilution plate 50-fold in RPMI medium.
Medium is carefully removed from cell plates using multichannel pipette, and replaced by 80 μL fresh medium. 10 μL of the 10× final concentration compound is added to the cells and incubated for 1 hour at 37° C. before addition of trigger. No trigger conditions/trigger conditions are spiked with equal final DMSO concentrations of 0.2% DMSO. 10 μL of 10×LPS (final conc. 200 ng/mL) solution are added to all wells except for the ‘no trigger wells’ where 10 μL medium is added. Supernatant is collected after 2 h (IL-10 determination) and after 20 h (TNFα determination) of LPS triggering.
Plates are washed three times with PBST, where after 100 μL of Strep-HRP conjugate (0.5 μg/mL final concentration diluted in dilution buffer) is added. Plates are incubated in the dark, at 37° C. for 30 min. Plates are washed three times with PBST. […] 100 μL of substrate solution is added to each well and incubated until brilliant blue color develops. The reaction is stopped by adding 50 μL of 1 M H2SO4, after which absorbance is measured at 450 nm on the SpectraMax i3, Molecular Devices.
To quantify these inductions fold changes (FC) compared to ‘LPS only’ are calculated for each concentration tested and the maximal FC is calculated (IL-10 FCmax):
[formula] wherein ABS=Absorbance measured at 450 nm.
The median maximal FC for test compounds across two or more assays is reported (IL-10FCmax median).

[3] = target: T1, SIK3 (Homo sapiens, UniProt Q9Y2K2); experiment: biochemical
T1 construct: purchased SignalChem S12-11G-100
In short: (§1)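 Read-out: ^33P incorporated into AMARA peptide, counted on filter plates, taken as kinase activity. Reactions start on addition of labeled/unlabeled ATP to enzyme plus substrate and end with phosphoric acid. Controls: 1% DMSO (negative) and 10 μM staurosporine (positive), final.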

[4] = target: T2, SIK2 (Homo sapiens, UniProt Q9H0K1); experiment: biochemical; conditions: 33P radioactive SIK kinase assay, AMARA peptide, 10 μM ATP
T2 construct: purchased ThermoFisher Scientific PV4792
In short: as §1

[5] = target: T3, SIK1 (Homo sapiens, UniProt P57059); experiment: biochemical; conditions: 33P radioactive SIK kinase assay, AMARA peptide, 10 μM ATP; read-out: SIK1 IC50
T3 construct: purchased Carna Biosciences 02-131
In short: as §1

T3 sequence (P57059 whole entry): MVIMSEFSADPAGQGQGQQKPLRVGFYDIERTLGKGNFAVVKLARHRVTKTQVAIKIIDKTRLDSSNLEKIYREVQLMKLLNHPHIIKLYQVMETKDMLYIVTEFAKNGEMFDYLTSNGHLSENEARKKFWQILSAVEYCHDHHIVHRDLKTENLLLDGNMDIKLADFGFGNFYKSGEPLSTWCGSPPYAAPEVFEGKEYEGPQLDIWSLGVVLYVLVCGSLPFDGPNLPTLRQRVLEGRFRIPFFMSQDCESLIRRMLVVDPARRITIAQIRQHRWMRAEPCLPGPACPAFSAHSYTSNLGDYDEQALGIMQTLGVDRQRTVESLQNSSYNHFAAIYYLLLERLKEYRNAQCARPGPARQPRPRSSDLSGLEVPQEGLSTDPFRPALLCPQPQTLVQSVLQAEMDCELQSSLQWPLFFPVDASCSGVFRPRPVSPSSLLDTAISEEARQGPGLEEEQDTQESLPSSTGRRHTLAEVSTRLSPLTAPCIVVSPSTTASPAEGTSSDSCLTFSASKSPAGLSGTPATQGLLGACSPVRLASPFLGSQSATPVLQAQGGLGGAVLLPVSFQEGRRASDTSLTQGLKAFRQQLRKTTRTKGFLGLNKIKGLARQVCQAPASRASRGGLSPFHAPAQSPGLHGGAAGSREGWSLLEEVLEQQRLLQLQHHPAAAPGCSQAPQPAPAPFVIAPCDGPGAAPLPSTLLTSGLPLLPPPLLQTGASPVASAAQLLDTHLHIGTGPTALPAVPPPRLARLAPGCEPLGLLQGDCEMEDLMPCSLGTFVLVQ
T1 sequence (Q9Y2K2 whole entry): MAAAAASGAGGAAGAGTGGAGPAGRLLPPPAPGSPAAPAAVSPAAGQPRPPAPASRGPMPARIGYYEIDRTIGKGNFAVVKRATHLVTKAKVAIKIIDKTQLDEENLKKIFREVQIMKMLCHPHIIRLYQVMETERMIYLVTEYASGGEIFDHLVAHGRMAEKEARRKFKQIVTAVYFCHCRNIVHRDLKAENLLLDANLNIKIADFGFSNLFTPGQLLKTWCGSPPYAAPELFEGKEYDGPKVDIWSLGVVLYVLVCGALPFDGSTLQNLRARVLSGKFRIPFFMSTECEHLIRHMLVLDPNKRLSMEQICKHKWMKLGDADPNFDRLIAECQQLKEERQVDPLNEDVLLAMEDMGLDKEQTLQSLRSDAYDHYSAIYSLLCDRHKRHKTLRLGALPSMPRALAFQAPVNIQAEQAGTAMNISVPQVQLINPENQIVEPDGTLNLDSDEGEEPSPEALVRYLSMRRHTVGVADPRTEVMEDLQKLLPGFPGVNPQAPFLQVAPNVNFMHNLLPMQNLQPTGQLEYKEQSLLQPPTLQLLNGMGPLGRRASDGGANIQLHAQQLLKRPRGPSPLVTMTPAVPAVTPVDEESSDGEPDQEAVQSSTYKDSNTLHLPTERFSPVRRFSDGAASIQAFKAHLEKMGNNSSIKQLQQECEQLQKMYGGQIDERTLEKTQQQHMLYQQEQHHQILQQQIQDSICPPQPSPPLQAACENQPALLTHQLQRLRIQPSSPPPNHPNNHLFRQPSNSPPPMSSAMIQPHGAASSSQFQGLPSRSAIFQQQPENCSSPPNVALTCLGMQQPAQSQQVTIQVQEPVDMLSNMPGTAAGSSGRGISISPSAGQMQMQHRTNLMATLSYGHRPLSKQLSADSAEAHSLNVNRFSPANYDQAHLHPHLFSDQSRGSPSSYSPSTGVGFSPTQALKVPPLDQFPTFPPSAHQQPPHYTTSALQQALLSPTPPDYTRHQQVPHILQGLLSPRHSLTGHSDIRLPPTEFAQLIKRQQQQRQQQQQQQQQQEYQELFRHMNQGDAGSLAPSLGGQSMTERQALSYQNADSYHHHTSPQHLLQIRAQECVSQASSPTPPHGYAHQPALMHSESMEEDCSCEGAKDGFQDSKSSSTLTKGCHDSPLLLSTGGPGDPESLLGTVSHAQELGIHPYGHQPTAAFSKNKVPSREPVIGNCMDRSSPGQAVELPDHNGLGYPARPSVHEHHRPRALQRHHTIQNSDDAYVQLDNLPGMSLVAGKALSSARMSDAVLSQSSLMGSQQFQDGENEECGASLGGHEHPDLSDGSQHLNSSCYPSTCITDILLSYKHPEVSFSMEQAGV
T2 sequence (Q9H0K1 whole entry): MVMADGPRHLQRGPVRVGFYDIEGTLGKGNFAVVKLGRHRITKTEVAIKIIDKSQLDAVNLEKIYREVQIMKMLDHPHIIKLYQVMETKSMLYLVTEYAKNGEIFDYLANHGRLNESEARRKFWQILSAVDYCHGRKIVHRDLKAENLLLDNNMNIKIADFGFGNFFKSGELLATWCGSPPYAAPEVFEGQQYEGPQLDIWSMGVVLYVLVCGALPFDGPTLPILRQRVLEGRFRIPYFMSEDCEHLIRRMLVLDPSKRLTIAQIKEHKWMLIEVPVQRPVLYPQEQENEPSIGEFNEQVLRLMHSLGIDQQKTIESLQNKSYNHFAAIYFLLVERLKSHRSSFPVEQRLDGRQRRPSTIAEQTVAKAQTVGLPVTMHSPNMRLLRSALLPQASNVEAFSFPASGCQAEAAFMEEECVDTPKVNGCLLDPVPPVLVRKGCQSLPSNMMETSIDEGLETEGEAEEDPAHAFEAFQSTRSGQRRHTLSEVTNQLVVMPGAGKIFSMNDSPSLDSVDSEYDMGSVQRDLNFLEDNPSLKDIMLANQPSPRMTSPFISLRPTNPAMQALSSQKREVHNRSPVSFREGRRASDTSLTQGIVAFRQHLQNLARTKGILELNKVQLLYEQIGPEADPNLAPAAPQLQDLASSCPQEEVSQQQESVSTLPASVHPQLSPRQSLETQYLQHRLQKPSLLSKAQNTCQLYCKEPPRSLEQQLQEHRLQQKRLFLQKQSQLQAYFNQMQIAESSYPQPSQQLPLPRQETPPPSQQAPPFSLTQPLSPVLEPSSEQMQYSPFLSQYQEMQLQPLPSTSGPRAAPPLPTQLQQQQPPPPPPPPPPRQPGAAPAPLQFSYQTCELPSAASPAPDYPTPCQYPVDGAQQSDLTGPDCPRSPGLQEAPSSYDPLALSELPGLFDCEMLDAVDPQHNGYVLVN

Row | SMILES | pEC50 [1] | pIC50 [3] | pIC50 [4] | pIC50 [5] | IL-10 FCmax median [2]
1 | COc1cc(-c2cnc3cc(-c4cnn(C)c4)ccn23)cc(Cl)c1C(=O)NCC(F)(F)F [compound 207, 2-chloro-6-methoxy-4-[7-(1-methylpyrazol-4-yl)imidazo[1,2-a]pyridin-3-yl]-N-(2,2,2-trifluoroethyl)benzamide] | 6.00 to 7.00 | 8.00 to 11.00 | 8.00 to 11.00 | 7.00 to 8.00 | ++ (>1.5-4.5)
2 | COc1cc(-c2cnc3cc(-c4cnn(C)c4)ccn23)cc(OC)c1C(=O)N1CC(C#N)C1 [compound 209, 1-[2,6-dimethoxy-4-[7-(1-methylpyrazol-4-yl)imidazo[1,2-a]pyridin-3-yl]benzoyl)azetidine-3-carbonitrile] | 6.00 to 7.00 | 8.00 to 11.00 | 8.00 to 11.00 | 8.00 to 11.00 | ++ (>1.5-4.5)
3 | COc1cc(-n2cnc3cc(-c4cnn(C)c4)ccc32)cc(OC)c1C(=O)N1CC(O)(C(F)(F)F)C1 [compound 219, [2,6-dimethoxy-4-[5-(1-methylpyrazol-4-yl)benzimidazol-1-yl]phenyl]-[3-hydroxy-3-(trifluoromethyl)azetidin-1-yl]methanone] | 6.00 to 7.00 | 8.00 to 11.00 | 8.00 to 11.00 | 8.00 to 11.00 | ++ (>1.5-4.5)
4 | COc1cc(-c2cnc3cc(-c4cn[nH]c4)ccn23)cc(OC)c1C(=O)N[C@H](C)C(F)(F)F [compound 222, 2,6-dimethoxy-4-[7-(1H-pyrazol-4-yl)imidazo[1,2-a]pyridin-3-yl]-N-[(1R)-2,2,2-trifluoro-1-methyl-ethyl]benzamide] | 6.00 to 7.00 | 8.00 to 11.00 | 8.00 to 11.00 | 8.00 to 11.00 | +++ (>4.5)
5 | COc1cc(-c2cnc3cc(-c4cc(C)no4)ccn23)cc(OC)c1C(=O)N[C@H](C)C(F)(F)F [compound 223, 2,6-dimethoxy-4-[7-(3-methylisoxazol-5-yl)imidazo[1,2-a]pyridin-3-yl]-N-[(1R)-2,2,2-trifluoro-1-methyl-ethyl]benzamide] | 6.00 to 7.00 | 7.00 to 8.00 | 7.00 to 8.00 | 7.00 to 8.00 | +++ (>4.5)
6 | COc1ccc(-c2ccn3c(-c4cc(OC)c(C(=O)NCC(F)(F)F)c(OC)c4)cnc3c2)cn1 [compound 239, 2,6-dimethoxy-4-[7-(6-mcthoxy-3-pyridyl)imidazo[1,2--a]pyridin-3-yl]-N-(2,2,2-trifluoroethyl)benzamide] | 6.00 to 7.00 | 8.00 to 11.00 | 8.00 to 11.00 | 7.00 to 8.00 | ++ (>1.5-4.5)
7 | COc1cc(-c2cnc3cc(-c4ccc(C#N)nc4)ccn23)cc(OC)c1C(=O)NCC(F)(F)F [compound 240, 4-[7-(6-cyano-3-pyridyl)imidazo[1,2-a]pyridin-3-yl]-2,6-dimethoxy-N-(2,2,2-trifluoroethyl)benzamide] | 6.00 to 7.00 | 8.00 to 11.00 | 7.00 to 8.00 | 6.30 to 7.00 | + (≤1.5)

Continued, in another order:

Row | pEC50 [1] | pIC50 [3] | pIC50 [4] | pIC50 [5] | SMILES | IL-10 FCmax median [2]
8 | 7.00 to 10.00 | 8.00 to 11.00 | 8.00 to 11.00 | 7.00 to 8.00 | CCn1cc(-c2ccc3c(c2)ncn3-c2cc(OC)c(C(=O)NC3CC3)c(OC(F)F)c2)cn1 [compound 54, N-cyclopropyl-2-(difluoromethoxy)-4-[5-(1-ethylpyrazol-4-yl)benzimidazol-1-yl]-6-methoxy-benzamide] | ++ (>1.5-4.5)
9 | 7.00 to 10.00 | 7.00 to 8.00 | 8.00 to 11.00 | 7.00 to 8.00 | COc1cc(-n2cnc3cc(-c4cnn(C)c4)ccc32)cc(OC)c1C(=O)N[C@@H](C)C(F)(F)F [compound 80, 2,6-dimethoxy-4-[5-(1-methylpyrazol-4-yl)benzimidazol-1-yl]-N-[(1S)-2,2,2-trifluoro-1-methyl-ethyl]benzamide] | ++ (>1.5-4.5)
10 | 7.00 to 10.00 | 8.00 to 11.00 | 8.00 to 11.00 | 8.00 to 11.00 | COc1cc(-n2cnc3cc(-c4cnn(C)c4)ccc32)cc(OC)c1C(=O)N[C@@H]1C[C@@H]1F [compound 144, N-[(1R,2S)-2-fluorocyclopropyl)-2,6-dimethoxy-4-[5-(1-methylpyrazol-4-yl)benzimidazol-1-yl]benzamide] | ++ (>1.5-4.5)
11 | 7.00 to 10.00 | 8.00 to 11.00 | 8.00 to 11.00 | 8.00 to 11.00 | CCNC(=O)c1c(OC)cc(-c2cnc3cc(-c4cnn(C5CCN(C)CC5)c4)ccn23)cc1OC(F)F [compound 148, 2-(difluoromethoxy)-N-ethyl-6-methoxy-4-[7-[1-(1-methyl-4-piperidyl)pvrazol-4-yl]imidazo[1,2-a]pyridin-3-yl]benzamide] | ++ (>1.5-4.5)
12 | 6.00 to 7.00 | 8.00 to 11.00 | 8.00 to 11.00 | 7.00 to 8.00 | COc1cc(-n2cnc3cc(-c4cnn(C)c4)ccc32)cc(OC)c1C(=O)N[C@@H]1C[C@@H]1C(F)F [compound 158] | ++ (>1.5-4.5)
13 | 7.00 to 10.00 | 8.00 to 11.00 | 8.00 to 11.00 | 8.00 to 11.00 | COC(=O)CCCn1cc(-c2ccn3c(-c4cc(OC)c(C(=O)NCC(F)(F)F)c(OC)c4)cnc3c2)cn1 [compound 256, methyl 4-[4-[3-[3,5-dimethoxy-4-(2,2,2-trifluoroethyl-carbamoyl)phenyl]imidazo[1,2-a]pyridin-7-yl]pyrazol-1-yl]butanoate] | ++ (>1.5-4.5)
14 | 7.00 to 10.00 | 8.00 to 11.00 | 8.00 to 11.00 | 8.00 to 11.00 | CCOC(=O)CCCn1cc(-c2ccn3c(-c4cc(OC)c(C(=O)NCC(F)(F)F)c(OC)c4)cnc3c2)cn1 [compound 257, ethyl 4-[4-[3-[3,5-dimethoxy-4-(2,2,2-trifluoroethyl-carbamoyl)phenyl]imidazo[1,2-a]pyridin-7-yl]pyrazol-1-yl]butanoate] | + (≤1.5)
